Data from patent US8927500B2, “Peptidomimetic macrocycles” (Aileron Therapeutics, Inc., priority 2012, dated 2015).
Where two headings read alike, the source gives them in different places. Where a SMILES comes first, the peptide text is derived from it. Bridges are numbered along the chain shown (N, C = ends). [ ]: non-standard residue; d: D form. Phe(4-B(OH)2) = N[C@@H](Cc1ccc(B(O)O)cc1)C(=O)O; dPhe(4-CF3) = N[C@H](Cc1ccc(C(F)(F)F)cc1)C(=O)O; R8 = C=CCCCCCC[C@@](C)(N)C(=O)O; Cha = N[C@@H](CC1CCCCC1)C(=O)O; R5 = C=CCCC[C@@](C)(N)C(=O)O; S5 = C=CCCC[C@](C)(N)C(=O)O; Nle = CCCC[C@H](N)C(=O)O; Ac3c = NC1(C(=O)O)CC1

Legend:
MDM2 = MDM2 (Homo sapiens, UniProt Q00987); assay: Competitive fluorescence polarization assay for MDM2; type: binding; details: competitive FP assay, MDM2; for IC50: read-out: IC50 (MDM2)
MDMX = biological target: T1, MDMX (Homo sapiens, UniProt O15151); assay: Competitive fluorescence polarization assay for MDMX; type: binding; details: competitive FP assay; for IC50: read-out: IC50 (MDMX)
T1 sequence (O15151 1-125): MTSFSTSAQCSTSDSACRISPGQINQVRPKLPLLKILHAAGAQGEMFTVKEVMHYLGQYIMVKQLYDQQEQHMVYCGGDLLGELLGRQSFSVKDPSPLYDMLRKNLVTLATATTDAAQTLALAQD
Experimental: Dilute MDMX (In-house, 40 kD) into FP buffer (High salt buffer-200 mM Nacl, 5 mM CHAPS, pH 7.5.) to make 300 nM (2×) working stock solution. • 2. […] Dilute 1 mM (in 100% DMSO) of FAM labeled linear peptide with DMSO to 100 μM (dilution 1:10). Then, dilute from 100 μM to 10 μM with water (dilution 1:10) and then dilute with FP buffer from 10 μM to 40 nM (dilution 1:250). This is the working solution which will be a 10 nM concentration in well (dilution 1:4). Keep the diluted FAM labeled peptide in the dark until use. • 4. […] Dilute 10 mM (in 100% DMSO) with DMSO to 5 mM (dilution 1:2). Then, dilute from 5 mM to 500 μM with H2O (dilution 1:10) and then dilute with FP buffer from 500 μM to 20 μM (dilution 1:25). […] Transfer 10 μl of serial diluted unlabeled peptides to each well which is filled with 20 μl of 300 nM of protein. • 7. Add 10 μl of 10 nM (4×) of FAM labeled peptide into each well and incubate for 3 hr to read.

Chain of MDM2 (Q00987 1-125): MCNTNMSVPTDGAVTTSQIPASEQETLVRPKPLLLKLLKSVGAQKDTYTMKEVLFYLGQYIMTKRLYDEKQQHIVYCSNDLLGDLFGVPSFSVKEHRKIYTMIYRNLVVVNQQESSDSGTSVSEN

Row | SMILES | Ki (MDM2; read-out: Ki (MDM2)) [µM] | Ki (MDMX; read-out: Ki (MDMX)) [µM] | IC50 (MDM2) [µM] | IC50 (MDMX) [µM] | Ki (MDM2; Ki (MDM2)) [µM] | Ki (MDMX; Ki (MDMX)) [µM]
1 | CC(=O)N[C@@H](CC(C)C)C(=O)N[C@H](C(=O)N[C@@H](Cc1ccccc1)C(=O)N[C@]1(C)CCCCCCC=CCCC[C@@](C)(C(=O)N[C@@H](CO)C(=O)N[C@H](C(=O)NCC(N)=O)C(C)C)NC(=O)[C@H](CC(C)C)NC(=O)[C@H](CCC(N)=O)NC(=O)[C@H](C)NC(=O)[C@H](Cc2c[nH]c3ccccc23)NC(=O)[C@H](Cc2ccc(O)cc2)NC(=O)[C@H](C(C)C)NC1=O)[C@@H](C)O (single isomer, unassigned) [compound 146] | < 0.01 | 0.01 to 0.1 | < 0.01 | 0.1 to 1 |  | 
2 | CC(=O)N[C@@H](CCC(=O)O)C(=O)N[C@H](C(=O)N[C@@H](Cc1ccccc1)C(=O)N[C@]1(C)CCCCCCC=CCCC[C@@](C)(C(=O)N[C@@H](CO)C(=O)N[C@@H](Cc2c[nH]c3ccccc23)C(=O)N[C@@H](C)C(N)=O)NC(=O)[C@H](CC(C)C)NC(=O)[C@H](CCC(N)=O)NC(=O)[C@H](C)NC(=O)[C@H](Cc2c[nH]c3ccccc23)NC(=O)[C@H](Cc2ccc(O)cc2)NC(=O)[C@H](CCCCN)NC1=O)[C@@H](C)O [compound 129] (Ac-ETF[R8]KYWAQL[S5]SWA-NH2; staple 4-11) | < 0.01 | 0.01 to 0.1 | < 0.01 | 0.1 to 1 |  | 
3 | CC(=O)N[C@@H](CC(C)C)C(=O)N[C@H](C(=O)N[C@@H](Cc1ccccc1)C(=O)N[C@]1(C)CCCCCCC=CCCC[C@@](C)(C(=O)N[C@@H](C)C(=O)N[C@@H](C)C(=O)N[C@@H](C)C(=O)N[C@@H](C)C(=O)N[C@@H](C)C(=O)N[C@H](C)C(N)=O)NC(=O)[C@H](CC(C)C)NC(=O)[C@H](CCC(N)=O)NC(=O)[C@H](C)NC(=O)[C@H](Cc2c[nH]c3ccccc23)NC(=O)[C@H](Cc2ccc(B(O)O)cc2)NC(=O)[C@H](CCC(=O)O)NC1=O)[C@@H](C)O [compound 556] (Ac-LTF[R8]E[Phe(4-B(OH)2)]WAQL[S5]AAAAA[dA]-NH2; staple 4-11) |  |  |  |  | < 0.01 | 0.01 to 0.1
4 | CC(=O)N[C@@H](CCC(=O)O)C(=O)N[C@H](C(=O)N[C@@H](Cc1ccccc1)C(=O)N[C@]1(C)CCCCCCC=CCCC[C@@](C)(C(=O)N[C@@H](CO)C(=O)N[C@@H](Cc2c[nH]c3ccccc23)C(=O)N[C@@H](C)C(N)=O)NC(=O)[C@H](CC(C)C)NC(=O)[C@H](CCC(N)=O)NC(=O)[C@H](C)NC(=O)[C@H](Cc2c[nH]c3ccccc23)NC(=O)[C@H](Cc2ccc(O)cc2)NC(=O)[C@H](C(C)C)NC1=O)[C@@H](C)O [compound 128] (Ac-ETF[R8]VYWAQL[S5]SWA-NH2; staple 4-11) | < 0.01 | 0.01 to 0.1 | < 0.01 | 0.1 to 1 |  | 
5 | CC(=O)N[C@@H](CCC(=O)O)C(=O)N[C@H](C(=O)N[C@@H](Cc1ccccc1)C(=O)N[C@]1(C)CCCCCCC=CCCC[C@@](C)(C(=O)N[C@@H](CO)C(=O)N[C@@H](CO)C(=O)N[C@H](C)C(N)=O)NC(=O)[C@H](CC(C)C)NC(=O)[C@H](CCC(N)=O)NC(=O)[C@H](C)NC(=O)[C@H](Cc2c[nH]c3ccccc23)NC(=O)[C@H](Cc2ccc(O)cc2)NC(=O)[C@H](C(C)C)NC1=O)[C@@H](C)O [compound 134] (Ac-ETF[R8]VYWAQL[S5]SS[dA]-NH2; staple 4-11) | < 0.01 | 0.01 to 0.1 | < 0.01 | 0.1 to 1 |  | 
6 | CC[C@H](C)[C@H](NC(C)=O)C(=O)N[C@H](C(=O)N[C@@H](Cc1ccccc1)C(=O)N[C@]1(C)CCCCCCC=CCCC[C@@](C)(C(=O)N[C@@H](C)C(=O)N[C@@H](Cc2c[nH]cn2)C(=O)N[C@@H](Cc2ccccc2)C(=O)N[C@@H](C)C(N)=O)NC(=O)[C@H](CC(C)C)NC(=O)[C@H](CCC(N)=O)NC(=O)[C@H](C(C)C)NC(=O)[C@H](Cc2c[nH]c3ccccc23)NC(=O)[C@H](Cc2c[nH]cn2)NC(=O)[C@H](CCC(=O)O)NC1=O)[C@@H](C)O (single isomer, unassigned) [compound 194] | < 0.01 | 0.1 to 1 | 0.01 to 0.1 | 0.1 to 1 |  | 
7 | CC(=O)N[C@@H](Cc1ccccc1)C(=O)N[C@]1(C)CCCCCCC=CCCC[C@@](C)(C(=O)N[C@@H](C)C(=O)N[C@@H](C)C(=O)N[C@@H](CC2CCCCC2)C(N)=O)NC(=O)[C@H](CC(C)C)NC(=O)C2(CC2)NC(=O)[C@H](CCC(=O)O)NC(=O)[C@H](Cc2c[nH]c3ccccc23)NC(=O)[C@H](Cc2ccc(O)cc2)NC(=O)[C@H](C)NC1=O [compound 21] (Ac-F[R8]AYWE[Ac3c]L[S5]AA[Cha]-NH2; staple 2-9) | 0.01 to 0.1 | 0.01 to 0.1 | 0.1 to 1 | 0.01 to 0.1 |  | 

More lines, main results first:

Row | Ki (MDM2; read-out: Ki (MDM2)) [µM] | Ki (MDMX; read-out: Ki (MDMX)) [µM] | IC50 (MDM2) [µM] | IC50 (MDMX) [µM] | SMILES | Ki (MDM2; Ki (MDM2)) [µM] | Ki (MDMX; Ki (MDMX)) [µM]
8 | 0.01 to 0.1 | 0.1 to 1 |  |  | CC(=O)N[C@@H](CC(C)C)C(=O)N[C@H](C(=O)N[C@@H](Cc1ccccc1)C(=O)N[C@]1(C)CCCCCCC=CCCC[C@@](C)(C(=O)N[C@@H](CO)C(=O)N[C@@H](C)C(N)=O)NC(=O)[C@H](CC2CCC2)NC(=O)[C@H](CCC(N)=O)NC(=O)[C@H](C)NC(=O)[C@H](Cc2c[nH]c3ccccc23)NC(=O)[C@H](Cc2ccc(O)cc2)NC(=O)[C@H](CCC(=O)O)NC1=O)[C@@H](C)O (single isomer, unassigned) [compound 711] |  | 
9 | < 0.01 | 0.01 to 0.1 | 0.01 to 0.1 | 0.01 to 0.1 | CCCC[C@H](NC(=O)[C@H](C)NC(=O)[C@H](C)NC(=O)[C@]1(C)CCCC=CCCCCCC[C@@](C)(NC(=O)[C@H](Cc2ccccc2)NC(=O)[C@@H](NC(=O)[C@H](CC(C)C)NC(=O)[C@H](C)NC(=O)[C@H](C)NC(C)=O)[C@@H](C)O)C(=O)N[C@@H](CCC(=O)O)C(=O)N[C@@H](Cc2ccc(O)cc2)C(=O)N[C@@H](Cc2c[nH]c3ccccc23)C(=O)N[C@@H](C)C(=O)N[C@@H](CCC(N)=O)C(=O)N[C@@H](CC(C)C)C(=O)N1)C(=O)N[C@@H](C)C(=O)N[C@@H](C)C(N)=O [compound 379] (Ac-AALTF[R8]EYWAQL[S5]AA[Nle]AA-NH2; staple 6-13) |  | 
10 | < 0.01 | 0.01 to 0.1 | < 0.01 | 0.1 to 1 | CC(=O)N[C@@H](CC(C)C)C(=O)N[C@H](C(=O)N[C@@H](Cc1ccccc1)C(=O)N[C@]1(C)CCCCCCC=CCCC[C@@](C)(C(=O)N[C@@H](C)C(=O)N[C@@H](C)C(=O)N[C@@H](Cc2ccccc2)C(=O)N[C@H](C)C(N)=O)NC(=O)[C@H](CC(C)C)NC(=O)[C@H](CCC(N)=O)NC(=O)[C@H](C)NC(=O)[C@H](Cc2c[nH]c3ccccc23)NC(=O)[C@H](Cc2ccc(O)cc2)NC(=O)[C@H](C)NC1=O)[C@@H](C)O (single isomer, unassigned) [compound 210] |  | 
11 | < 0.01 | < 0.01 | 0.01 to 0.1 | 0.01 to 0.1 | CCCC[C@H](NC(=O)[C@H](Cc1c[nH]c2ccccc12)NC(=O)[C@H](C)NC(=O)[C@]1(C)CCCC=CCCCCCC[C@@](C)(NC(=O)[C@H](Cc2ccccc2)NC(=O)[C@@H](NC(=O)[C@H](CC(C)C)NC(C)=O)[C@@H](C)O)C(=O)N[C@@H](CCC(=O)O)C(=O)N[C@@H](Cc2ccc(O)cc2)C(=O)N[C@@H](Cc2c[nH]c3ccccc23)C(=O)N[C@@H](C)C(=O)N[C@@H](CCC(N)=O)C(=O)N[C@@H](CC(C)C)C(=O)N1)C(=O)N[C@H](C)C(N)=O [compound 277] (Ac-LTF[R8]EYWAQL[S5]AW[Nle][dA]-NH2; staple 4-11) |  | 
12 |  |  | 0.1 to 1 | > 1 | CC(=O)N[C@@H](C(=O)N[C@]1(C)CCCC=CCCC[C@](C)(C(=O)N[C@H](Cc2ccc(C(F)(F)F)cc2)C(=O)N[C@H](CCC(=O)O)C(=O)N[C@H](CCCCN)C(=O)N[C@H](CC(C)C)C(=O)N[C@H](CC(C)C)C(=O)N[C@H](CCCNC(=N)N)C(N)=O)NC(=O)[C@@H](C)NC(=O)[C@@H](Cc2ccc(O)cc2)NC(=O)[C@@H](Cc2c[nH]c3ccccc23)NC1=O)[C@H](C)O [compound 752] (Ac-[dT][R5][dW][dY][dA][R5][dPhe(4-CF3)][dE][dK][dL][dL][dR]-NH2; staple 2-6) |  | 
13 | 0.01 to 0.1 | 0.01 to 0.1 |  |  | CC(=O)N[C@@H](CC(C)C)C(=O)N[C@H](C(=O)N[C@@H](Cc1ccccc1)C(=O)N[C@]1(C)CCCCCCC=CCCC[C@@](C)(C(=O)N[C@@H](C)C(=O)N[C@@H](C)C(=O)N[C@@H](C)C(=O)N[C@@H](C)C(=O)N[C@@H](C)C(=O)N[C@H](C)C(N)=O)NC(=O)[C@H](CC(C)C)NC(=O)[C@H](C)NC(=O)[C@H](C)NC(=O)[C@H](Cc2c[nH]c3ccccc23)NC(=O)[C@H](Cc2ccc(O)cc2)NC(=O)[C@H](C)NC1=O)[C@@H](C)O (single isomer, unassigned) [compound 708] |  | 
14 | < 0.01 | 0.01 to 0.1 |  |  | CC(=O)N[C@@H](CC(C)C)C(=O)N[C@H](C(=O)N[C@@H](Cc1ccccc1)C(=O)N[C@]1(C)CCCCCCC=CCCC[C@@](C)(C(=O)N[C@@H](C)C(=O)N[C@@H](C)C(=O)N[C@@H](C)C(=O)N[C@@H](C)C(=O)N[C@@H](C)C(=O)N[C@H](C)C(N)=O)NC(=O)[C@H](CC(C)C)NC(=O)[C@H](Cc2c[nH]cn2)NC(=O)[C@H](C)NC(=O)[C@H](Cc2c[nH]c3ccccc23)NC(=O)[C@H](Cc2ccc(O)cc2)NC(=O)[C@H](CCC(=O)O)NC1=O)[C@@H](C)O [compound 613] (Ac-LTF[R8]EYWAHL[S5]AAAAA[dA]-NH2; staple 4-11) |  | 
15 | 0.1 to 1 | > 1 | 0.1 to 1 | > 1 | CCCC[C@H](NC(=O)[C@H](C)NC(=O)[C@H](C)NC(=O)[C@]1(C)CCCC=CCCCCCC[C@@](C)(NC(=O)[C@H](Cc2ccccc2)NC(=O)[C@@H](NC(=O)[C@H](CC(C)C)NC(C)=O)[C@@H](C)O)C(=O)N[C@@H](C)C(=O)N(C)[C@@H](Cc2ccc(O)cc2)C(=O)N[C@@H](Cc2c[nH]c3ccccc23)C(=O)N[C@@H](C)C(=O)N[C@@H](CCC(N)=O)C(=O)N[C@@H](CC(C)C)C(=O)N1)C(=O)N[C@@H](C)C(N)=O (single isomer, unassigned) [compound 384] |  | 
